Results reported in EP0745595A1, “3-(3-Aryloxyphenyl)-1-(substituted methyl)-s-triazine-2,4,6-oxo or thiotrione herbicidal agents” (American Cyanamid Company, priority 1995, dated 1996).

How the values were obtained:
Type in all cases: in vivo
[1] = tested on: SETARIA VIRIDIS, (L) BEAU; assay: Preemergence herbicidal evaluation, SETVI (Foxtail, Green); details: four to five weeks after treatment
Text: (§1) Results of herbicide evaluation are expressed on a rating scale (0-9). The scale is based upon a visual observation of plant stand, vigor, malformation, size, chlorosis and overall plant appearance as compared with a control.
(§2) The preemergence herbicidal activity of the test compounds of the present invention is exemplified by the following tests in which the seeds of a variety of monocotyledonous and dicotyledonous plants are separately mixed with potting soil and planted on top of approximately one inch of soil in separate pint cups. […] The treated cups are then placed on greenhouse benches, watered and cared for in accordance with conventional greenhouse procedures. From four to five weeks after treatment, the tests are terminated and each cup is examined and rated according to the rating system provided in Example 40.
(§3) The compounds evaluated are reported by compound number given in Example 40.

[2] = tested on: ABUTILON THEOPHRASTI, MEDIC.; assay: Preemergence herbicidal evaluation, ABUTH (Velvetleaf); details: four to five weeks after treatment
Text: as §1, §2, §3

[3] = tested on: CYPERUS SEROTINUS, ROTTB.; assay: Preemergence weed control under flooded paddy conditions, CYPSE (Flatsedge); details: preemergence weeds, rated three to four weeks after treatment
Procedure, shortened: (§4)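 Seeds or propagules sown in top 0.5 cm of silt loam in undrained containers, flooded 1.5 to 3 cm throughout. Compounds in aqueous/acetone 50/50 v/v pipetted into flood water at about 0.5, 0.25, 0.125 and 0.063 kg/ha. Visual 0-9 rating versus control after three to four weeks in greenhouse.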

CASSIA OBTUSIFOLIA, L. = assay: Preemergence herbicidal evaluation, CASOB (Sicklepod); details: four to five weeks after treatment
Procedure, shortened: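 Seeds of various monocot and dicot plants, including sicklepod, were each mixed with potting soil and sown on roughly one inch of soil in separate pint cups for preemergence testing. Treated cups were kept on greenhouse benches, watered and maintained conventionally. Four to five weeks after treatment, each cup was visually rated on a 0-9 scale against a control.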

[4] = tested on: GLYCINE MAX(L) MERR. CV. WILLIAMS; assay: Preemergence herbicidal evaluation, GLXMAW (Soybean, Williams); details: four to five weeks after treatment
Procedure, shortened: (§5)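 Greenhouse preemergence test; treated soil cups received compound in aqueous acetone (about 0.125 to 0.50 kg/ha) right after sowing and were assessed visually 4-5 weeks later on a 0-9 scale compared with control plants.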

[…], PRESL. = Preemergence weed control under flooded paddy conditions, MOOVA (Monochoria); details: preemergence weeds, rated three to four weeks after treatment
Procedure, shortened: as §4

CYPERUS IRIA = assay: Preemergence weed control under flooded paddy conditions, CYPIR (Rice Flatsedge); details: preemergence weeds, rated three to four weeks after treatment
Procedure, shortened: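 Seeds or propagating organs of rice flatsedge were planted in the top 0.5 cm of silt loam soil in 32 oz. plastic containers, 10.5 cm across and without drainage holes. Water was kept 1.5 to 3 cm above the soil throughout. Treated containers were kept on greenhouse benches, and herbicidal effect was visually rated on a 0-9 scale against a control.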

[5] = tested on: AMBROSIA ARTEMISIIFOLIA, L.; assay: Preemergence herbicidal evaluation, AMBEL (Ragweed, Common); details: four to five weeks after treatment
Procedure, shortened: as §5

[6] = tested on: ORYZA SATIVA, L. TEBONNET; assay: Preemergence herbicidal evaluation, ORYSAT (Rice, Tebonnet); details: four to five weeks after treatment
Text: as §1, §2, §3

CHENOPODIUM ALBUM, L. [7] = assay: Postemergence herbicidal evaluation, CHEAL (Lambsquarters, Common); details: rated four to five weeks after treatment, averaged
Procedure, shortened: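 Seedlings of common lambsquarters (Chenopodium album) were raised in jiffy flats for roughly two weeks, then sprayed postemergence through a nozzle at 40 psi with test compound dispersed in 50/50 acetone/water containing 0.5% TWEEN®20 surfactant. Plants were kept on greenhouse benches under standard care and rated visually on a 0-9 scale versus controls.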

[8] = tested on: TRITICUM AESTIVUM, CV. APOLLO; assay: Preemergence herbicidal evaluation, TRZAWO (Wheat, Winter, CV. APOLLO); details: four to five weeks after treatment
Procedure, shortened: as §5

[9] = tested on: ORYZA SATIVA, L. TEBONNET; assay: Rice tolerance to post-transplant applications under flooded paddy conditions, ORYSAT (Rice, Tebonnet); details: post-transplant rice, rated three to four weeks after treatment;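 also: applied to flooded soil surface three days after transplanting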
Procedure, shortened: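 Two ten-day-old Tebonnet rice seedlings were transplanted into silt loam and kept flooded 1.5 to 3 cm deep. Three days after transplanting, the flood surface received the compound in aqueous/acetone 50/50 v/v at about 0.5, 0.25, 0.125 or 0.063 kg/ha. Injury was rated visually on a 0-9 scale versus control after 3-4 weeks.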

ZEA MAYS L. = assay: Preemergence herbicidal evaluation, ZEAMX (Corn, Field); details: four to five weeks after treatment
Procedure, shortened: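 Corn (Zea mays) seeds were mixed with potting soil and planted on about one inch of soil in pint cups, then treated preemergence. Cups were kept on greenhouse benches, watered and maintained conventionally, and after four to five weeks were visually rated on a 0-9 scale versus an untreated control.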

[10] = tested on: ABUTILON THEOPHRASTI, MEDIC.; assay: Postemergence herbicidal evaluation, ABUTH (Velvetleaf); details: rated four to five weeks after treatment, averaged
Procedure, shortened: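 Velvetleaf (Abutilon theophrasti) seedlings were raised in jiffy flats for about two weeks and then sprayed postemergence. The test compound was dispersed in a 50/50 acetone/water mixture containing 0.5% TWEEN®20 and applied through a nozzle operating at 40 psi. Plants were kept on greenhouse benches and rated 0-9 four to five weeks after treatment.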

SAGITTARIA PYGMAEA, L. = assay: Preemergence weed control under flooded paddy conditions, SAGPY (Arrowhead (Pygmaea)); details: preemergence weeds, rated three to four weeks after treatment
Procedure, shortened: as §4

CHENOPODIUM ALBUM, L. [11] = assay: Preemergence herbicidal evaluation, CHEAL (Lambsquarters, Common); details: four to five weeks after treatment
Procedure, shortened: as §5

[12] = tested on: ECHINOCHLOA CRUS-GALLI, (L) BEAU; assay: Preemergence herbicidal evaluation, ECHCG (Barnyardgrass); details: four to five weeks after treatment
Procedure, shortened: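 Barnyardgrass seeds were mixed with potting soil and planted on about one inch of soil in pint cups for preemergence testing. Treated cups were kept on greenhouse benches, watered and maintained by standard greenhouse practice. After four to five weeks, each cup was visually rated on a 0-9 scale against an untreated control.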

CCOC(=O)Cn1c(=O)[nH]c(=O)n(-c2cc(Oc3c(F)cc(C(F)(F)F)cc3Cl)ccc2C#N)c1=O [Compound 10, Ethyl 3-{5-[(2-chloro-α,α,α,6-tetrafluoro-p-tolyl)oxy]-2-cyanophenyl}tetrahydro-2,4,6-trioxo-s-triazine-1(2H)-acetate]
SETVI rating ([1]; Rate 0.125 kg/ha): 0.0 | SETVI rating ([1]; Rate 0.250 kg/ha): 0.0 | SETVI rating ([1]; Rate 0.500 kg/ha): 0.0 | ABUTH rating ([2]; Rate 0.125 kg/ha): 0.0 | ABUTH rating ([2]; Rate 0.250 kg/ha): 0.0 | ABUTH rating ([2]; Rate 0.500 kg/ha): 0.0 | CYPSE herbicidal rating ([3]; Rate 0.063 kg/ha): 0.0 | CYPSE herbicidal rating ([3]; Rate 0.125 kg/ha): 0.0 | CYPSE herbicidal rating ([3]; Rate 0.250 kg/ha): 0.0 | CASOB rating (CASSIA OBTUSIFOLIA, L.; Rate 0.125 kg/ha): 0.0 | CASOB rating (CASSIA OBTUSIFOLIA, L.; Rate 0.250 kg/ha): 0.0 | CASOB rating (CASSIA OBTUSIFOLIA, L.; Rate 0.500 kg/ha): 0.0 | GLXMAW rating ([4]; Rate 0.125 kg/ha): 0.0 | GLXMAW rating ([4]; Rate 0.250 kg/ha): 0.0 | GLXMAW rating ([4]; Rate 0.500 kg/ha): 0.0 | MOOVA herbicidal rating ([…], PRESL.; Rate 0.063 kg/ha): 9.0 | MOOVA herbicidal rating ([…], PRESL.; Rate 0.125 kg/ha): 9.0 | MOOVA herbicidal rating ([…], PRESL.; Rate 0.250 kg/ha): 9.0 | MOOVA herbicidal rating ([…], PRESL.; Rate 0.500 kg/ha): 9.0 | CYPIR herbicidal rating (CYPERUS IRIA; Rate 0.063 kg/ha): 9.0 | CYPIR herbicidal rating (CYPERUS IRIA; Rate 0.125 kg/ha): 9.0 | CYPIR herbicidal rating (CYPERUS IRIA; Rate 0.250 kg/ha): 9.0 | CYPIR herbicidal rating (CYPERUS IRIA; Rate 0.500 kg/ha): 9.0 | AMBEL rating ([5]; Rate 0.125 kg/ha): 0.0 | AMBEL rating ([5]; Rate 0.250 kg/ha): 0.0 | AMBEL rating ([5]; Rate 0.500 kg/ha): 0.0 | ORYSAT rating ([6]; Rate 0.125 kg/ha): 2.0 | ORYSAT rating ([6]; Rate 0.250 kg/ha): 2.0 | ORYSAT rating ([6]; Rate 0.500 kg/ha): 2.0 | CHEAL, herbicide rating (0-9) (CHENOPODIUM ALBUM, L. [7]; Rate 0.125 kg/ha): 9.0 | CHEAL, herbicide rating (0-9) (CHENOPODIUM ALBUM, L. [7]; Rate 0.250 kg/ha): 9.0 | CHEAL, herbicide rating (0-9) (CHENOPODIUM ALBUM, L. [7]; Rate 0.500 kg/ha): 9.0 | TRZAWO rating ([8]; Rate 0.125 kg/ha): 0.0 | TRZAWO rating ([8]; Rate 0.250 kg/ha): 0.0 | TRZAWO rating ([8]; Rate 0.500 kg/ha): 0.0 | ORYSAT herbicidal rating (rice tolerance) ([9]; Rate 0.063 kg/ha): 0.0 | ORYSAT herbicidal rating (rice tolerance) ([9]; Rate 0.125 kg/ha): 1.0 | ORYSAT herbicidal rating (rice tolerance) ([9]; Rate 0.250 kg/ha): 1.0 | ORYSAT herbicidal rating (rice tolerance) ([9]; Rate 0.500 kg/ha): 1.0 | ZEAMX rating (ZEA MAYS L.; Rate 0.125 kg/ha): 0.0 | ZEAMX rating (ZEA MAYS L.; Rate 0.250 kg/ha): 0.0 | ZEAMX rating (ZEA MAYS L.; Rate 0.500 kg/ha): 0.0 | ABUTH, herbicide rating (0-9) ([10]; Rate 0.125 kg/ha): 9.0 | ABUTH, herbicide rating (0-9) ([10]; Rate 0.250 kg/ha): 9.0 | ABUTH, herbicide rating (0-9) ([10]; Rate 0.500 kg/ha): 9.0 | SAGPY herbicidal rating (SAGITTARIA PYGMAEA, L.; Rate 0.063 kg/ha): 0.0 | SAGPY herbicidal rating (SAGITTARIA PYGMAEA, L.; Rate 0.125 kg/ha): 0.0 | SAGPY herbicidal rating (SAGITTARIA PYGMAEA, L.; Rate 0.250 kg/ha): 0.0 | SAGPY herbicidal rating (SAGITTARIA PYGMAEA, L.; Rate 0.500 kg/ha): 0.0 | CHEAL rating (CHENOPODIUM ALBUM, L. [11]; Rate 0.125 kg/ha): 9.0 | CHEAL rating (CHENOPODIUM ALBUM, L. [11]; Rate 0.250 kg/ha): 9.0 | CHEAL rating (CHENOPODIUM ALBUM, L. [11]; Rate 0.500 kg/ha): 9.0 | ECHCG rating ([12]; Rate 0.125 kg/ha): 0.0 | ECHCG rating ([12]; Rate 0.250 kg/ha): 0.0 | ECHCG rating ([12]; Rate 0.500 kg/ha): 0.0
